Experimental data taken from paper PMC3479967 (Evidence-based Complementary and Alternative Medicine : eCAM, 2012).

How the values were obtained:
[1] = Calculation of possible maximum concentrations in blood; set-up: species or system human; conditions: calculated, after a single oral administration of Epimedium pubescens decoction
UGT2B15 = target: T1, UGT2B15 (Homo sapiens, UniProt P54855); test: Inhibition of recombinant UGT2B15 activity (4-MU glucuronidation)
T1 sequence (P54855 24-530): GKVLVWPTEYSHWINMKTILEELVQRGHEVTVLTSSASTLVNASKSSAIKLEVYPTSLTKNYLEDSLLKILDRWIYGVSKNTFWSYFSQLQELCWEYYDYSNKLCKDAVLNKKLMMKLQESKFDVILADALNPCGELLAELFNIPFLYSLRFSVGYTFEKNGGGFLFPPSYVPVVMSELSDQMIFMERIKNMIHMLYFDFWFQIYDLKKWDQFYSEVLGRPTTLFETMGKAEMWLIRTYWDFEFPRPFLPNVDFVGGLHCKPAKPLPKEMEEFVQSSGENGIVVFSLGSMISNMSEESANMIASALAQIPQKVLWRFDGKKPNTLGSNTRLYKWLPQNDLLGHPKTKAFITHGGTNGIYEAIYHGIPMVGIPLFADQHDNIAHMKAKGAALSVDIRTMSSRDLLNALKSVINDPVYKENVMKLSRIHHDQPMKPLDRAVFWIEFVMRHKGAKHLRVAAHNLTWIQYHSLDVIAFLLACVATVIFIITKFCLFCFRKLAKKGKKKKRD
Protocol: (§1) A panel of recombinant human UGT supersomes (UGT1A1, UGT1A3, UGT1A4, UGT1A6, UGT1A7, UGT1A8, UGT1A9, UGT1A10, UGT2B4, UGT2B7, UGT2B15, and UGT2B17) expressed in baculovirus-infected insect cells were purchased from BD Gentest Corp. (Woburn, MA, USA).
(§2) 4-MU, a nonselective substrate of UGTs, was used as probe substrate for all UGTs except UGT1A4. Incubations with each individual enzyme were conducted using conditions previously described. There was a 5 min preincubation step at 37°C before the reaction was started by addition of UDPGA. The incubation mixtures were then centrifuged at 20,500 ×g for 15 min to obtain the supernatant. Aliquots (20 μL) were then analyzed by HPLC. The HPLC system (SHIMADZU, Kyoto, Japan) consisted of an SCL-10A system controller, two LC-10AT pumps, a SIL-10A auto injector, and a SPD-10AVP UV detector. Chromatographic separation was achieved using a Kromasil ODS column (4.6 × 150 mm I.D., 5 μm particle size) at a flow rate of 1 mL/min and UV detection at 316 nm. The mobile phase consisted of 10 mM KH2PO4, pH 2.7 (A) and acetonitrile (B). The following gradient was applied at a flow rate of 1 mL/min: 0–4 min 80% A and 20% B, 4.1–8 min 50% A and 50% B, 8.1–12 min, 30% A and 70% B. All experiments were performed in two independent experiments in duplicate.
(§3) A typical incubation mixture contained recombinant human UGTs, 5 mM MgCl2, 5 mM UDPGA, 50 μg/mg protein alamethicin, 50 mM Tris-HCl buffer (pH 7.4), and various probe substrates of UGTs in the absence or presence of different concentrations of inhibitors. […] The final concentration of DMSO in the incubation system was 1% (v/v). […]
(§4) Inhibition data from experiments were graphically represented by Dixon plots. K i values were calculated by nonlinear regression using the equations for competitive inhibition (1), noncompetitive inhibition (2), or mixed inhibition (3), [22] […] The type of inhibition was determined from the enzyme inhibition models. Goodness of fit to kinetic and inhibition models was assessed from the F statistic, r ^2 values, parameter standard error estimates, and 95% confidence intervals. […]

UGT1A9 = target: T2, UGT1A9 (Homo sapiens, UniProt O60656); test: Inhibition of recombinant UGT1A9 activity (4-MU glucuronidation)
T2 sequence (O60656 26-530): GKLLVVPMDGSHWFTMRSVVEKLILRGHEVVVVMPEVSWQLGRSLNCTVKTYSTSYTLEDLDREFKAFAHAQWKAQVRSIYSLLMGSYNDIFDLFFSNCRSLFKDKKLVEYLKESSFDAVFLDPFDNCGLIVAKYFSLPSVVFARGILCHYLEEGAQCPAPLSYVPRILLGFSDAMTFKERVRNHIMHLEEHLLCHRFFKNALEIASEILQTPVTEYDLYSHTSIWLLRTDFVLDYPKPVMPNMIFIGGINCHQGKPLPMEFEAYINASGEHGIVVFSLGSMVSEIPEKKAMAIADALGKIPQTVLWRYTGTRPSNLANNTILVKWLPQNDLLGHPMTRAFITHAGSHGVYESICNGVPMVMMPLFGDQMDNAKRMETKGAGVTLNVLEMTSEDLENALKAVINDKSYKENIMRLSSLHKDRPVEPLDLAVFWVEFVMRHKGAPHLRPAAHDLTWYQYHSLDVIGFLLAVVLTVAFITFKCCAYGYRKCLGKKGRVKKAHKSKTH
Protocol: as §1, §2, §3, §4

## COc1ccc(-c2oc3c(CC=C(C)C)c(O[C@@H]4O[C@H](CO)[C@@H](O)[C@H](O)[C@H]4O)cc(O)c3c(=O)c2O[C@@H]2O[C@@H](C)[C@H](O)[C@@H](O)[C@H]2O)cc1 [Icariin]
[1]
  Possible maximum concentration in human blood: about 1.3 nM
UGT2B15
  IC50: > 100 µM
UGT1A9
  IC50: > 100 µM

## COc1ccc(-c2oc3c(CC=C(C)C)c(O[C@@H]4O[C@H](CO)[C@@H](O)[C@H](O)[C@H]4O)cc(O)c3c(=O)c2O)cc1 [Icariside I]
[1]
  Possible maximum concentration in human blood: ~0.1 nM
UGT2B15
  IC50: > 100 µM
UGT1A9
  IC50: > 100 µM

## COc1ccc(-c2oc3c(CC=C(C)C)c(O)cc(O)c3c(=O)c2O)cc1 [Icaritin]
[1]
  Possible maximum concentration in human blood: ~1.5 nM
UGT2B15
  IC50: > 100 µM
UGT1A9
  IC50: 1.5 ± 0.1 µM
